Activity calls are given as the source filed them.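 Rule for the calls: active = maximal inhibition of the USP30 enzyme reaching 30% or more across the dose series; inactive = the rest.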

In the assay the target is Ubiquitin carboxyl-terminal hydrolase 30 (Homo sapiens) (UniProt Q70CQ3). The assay is described as follows: inhibitors of ubiquitin-specific protease 30 deubiquitylating enzyme, concentration dependence, in vitro biochemical, validation of primary hits (AID 1645865). As to conditions: purified USP30, Ub-rhodamine cleavage, fluorescence, 2 h.
Sequence of Ubiquitin carboxyl-terminal hydrolase 30 (Homo sapiens) (Q70CQ3 whole entry, looked up): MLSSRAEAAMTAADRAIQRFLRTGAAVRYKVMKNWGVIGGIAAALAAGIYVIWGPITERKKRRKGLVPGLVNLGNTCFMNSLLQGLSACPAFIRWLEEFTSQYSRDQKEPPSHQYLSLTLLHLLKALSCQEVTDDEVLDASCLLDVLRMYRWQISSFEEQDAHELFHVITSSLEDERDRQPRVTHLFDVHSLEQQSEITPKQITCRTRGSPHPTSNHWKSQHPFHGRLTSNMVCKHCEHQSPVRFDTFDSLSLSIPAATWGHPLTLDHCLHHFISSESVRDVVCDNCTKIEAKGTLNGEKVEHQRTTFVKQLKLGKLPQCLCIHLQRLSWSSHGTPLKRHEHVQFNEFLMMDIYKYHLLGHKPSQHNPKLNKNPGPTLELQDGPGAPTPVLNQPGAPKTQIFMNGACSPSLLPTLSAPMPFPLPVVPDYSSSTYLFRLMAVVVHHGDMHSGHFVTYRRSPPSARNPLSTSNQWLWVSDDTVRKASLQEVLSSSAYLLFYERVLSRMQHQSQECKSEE
For the molecule `CCS(=O)(=O)N1CCc2cc(C(=O)Nc3ccc4c(c3)OCCO4)ccc21`, the IC50 was > 50 µM (inactive).

As for `COc1ccc(CC(=O)NCc2ccc3[nH]c(C)cc3c2)cc1`, the IC50 was > 50 µM (inactive).

As for `CCN(CC)c1nc(F)c2c(c1F)S(=O)(=O)CCN2Cc1cccnc1`, the IC50 was > 50 µM (inactive). For `O=C(Cn1nc2c3c4c(sc3ncn2c1=O)CCCCC4)Nc1ccc(Cl)cc1F`, the IC50 is 1.49 µM. With `CCOc1cc(N2CCOCC2)c(OCC)cc1NC(=O)c1cc(-c2ccncc2)nc2ccccc12`, the 50% inhibitory concentration (IC50) is 3.68 µM.

On to `O=C(CN1C(=O)C2CCCC2=Nc2ccccc21)Nc1ccc(F)cc1F` (stereo unspecified), for which the 50% inhibitory concentration (IC50) is 36.4 µM. The figure for `O=C(NCc1ccc2c(c1)OCO2)c1[nH]nc2c1COc1ccccc1-2` is 1.97 µM; for `COc1ccc(NS(=O)(=O)c2ccc(NC(=O)Nc3ccc(Cl)cc3)cc2)cc1` it is 18.3 µM.

In the case of `COc1cccc(N2CCN(C(=O)C3CCN(c4nc(NC(C)=O)ns4)CC3)CC2)c1`, the IC50 is > 50 µM (inactive).

Turning to `COc1cc2cc3c(c(O)c2c(O)c1-c1c(OC)cc2cc4c(c(O)c2c1O)C(=O)OC1CC(C)OC41)C(=O)OC1CC(C)OC31` (stereo unspecified), the IC50 is > 50 µM (inactive). The same measure for `COc1c(C)c(C(O)C(C)O)c2[nH]c3ccc(CC=C(C)C)cc3c2c1O` (stereo unspecified): 27.4 µM; for `COc1cc(NC(=O)Cn2nc(-c3ccc(F)cc3)ccc2=O)ccc1-n1cnnn1`: 1.74 µM. The figure for `COc1ccc(OC)c(C2CC(=O)Nc3n[nH]c(-c4ccccc4)c32)c1` (stereo unspecified) is 25.6 µM. The same measure for `CO/C=C/C(=O)c1cc2cnc3c(=N)cc(NC(C)=O)c([nH]1)c23`: > 50 µM (inactive). On to `COCCCn1c(C(=O)NCCc2ccccc2)cc2c(=O)n3cccc(C)c3nc21`, for which the IC50 is 34.7 µM. The figure for `COc1cc(C(=O)Nc2ccc(-c3csc(C)n3)cc2)cc(OC)c1OC` is > 50 µM (inactive); for `CC1=C(C(=O)Nc2ccccc2C)C(c2ccc(OCc3ccccc3F)cc2)n2ncnc2N1` (stereo unspecified) it is 30.6 µM; for `COc1ccc(OC)c(-c2c(C#N)c(C)nc3c2N2CCC3CC2)c1` it is 24.1 µM. The same measure for `Cc1ccc(C(=O)NCC(=O)Nc2nc3ccccc3[nH]2)c(C)c1`: 39.6 µM; for `COc1ccc(-c2cc(C(=O)NC3CCCCCC3)[nH]n2)cc1S(=O)(=O)N(C)C`: 22.9 µM; for `O=C(Nc1ccc2c(c1)OCO2)C1CCN(Cc2nc3ccccc3s2)CC1`: > 50 µM (inactive). Take `CN(Cc1ccccc1)S(=O)(=O)c1ccc2[nH]cc(C(=O)NCc3cccs3)c(=O)c2c1`: the IC50 is 0.38 µM.

For the molecule `O=C(CN1CCCCC1)Nc1nnc(-c2ccc([N+](=O)[O-])cc2)s1`, the concentration for half-maximal inhibition (IC50) is 22.5 µM.

Turning to `C/C1=C/C=C/[C@H](C)[C@H](O)[C@@H](C)[C@@H](O)[C@@H](C)[C@H](O)[C@H](C)[C@@H](O)[C@@H](C)/C=C(/C)C(=O)c2c(O)c(C)cc3c2C(=O)C=C(NC1=O)C3=O`, the IC50 is > 50 µM (inactive). Regarding `c1ccc2c(Cc3nc(-c4ccncc4)no3)cccc2c1`, the IC50 was > 50 µM (inactive).

`CCn1c(SCc2cccc(C)c2)nnc1-c1cnccn1`: the IC50 was > 50 µM (inactive). The figure for `CSc1nccc(-c2ccc(F)cc2)c1C#N` is 36.3 µM. As for `CN1CCN(C(=O)c2cc(-c3ccn(CC4CC4)n3)n3ccccc23)CC1`, the IC50 is > 50 µM (inactive).

Turning to `COc1ccc(CCNC(=O)[C@H](CCSC)NC(=O)N2CCn3c2nc2ccccc23)cc1OC`, the IC50 was 44 µM. On to `COc1ccc(C(C)=O)cc1CC(=O)Nc1nc2ccccc2[nH]1`, for which the IC50 was > 50 µM (inactive). The figure for `O=C(CC1C(=O)Nc2nc(-c3ccccc3)nn21)Nc1cccc2ccccc12` (stereo unspecified) is 4.38 µM. Turning to `COC(=O)CC1CC23OC2(C(=O)c2c(O)cccc2C3=O)C(C)O1` (stereo unspecified), the IC50 is > 50 µM (inactive).

Take `COc1ccc(NC(=O)C2CCCN(S(=O)(=O)N3CCCCCC3)C2)cc1` (stereo unspecified): the half-maximal inhibitory concentration (IC50) was 42.7 µM.

Turning to `O=C(CSc1ccc(-c2cccc([N+](=O)[O-])c2)nn1)Nc1cccc(F)c1`, the IC50 was 2.11 µM. Take `Nc1ncnc(SCc2ccc(Cl)cc2)n1`: the IC50 was 17.1 µM. Take `O=C(NCc1cccnc1)c1cnn2c(C(F)(F)F)cc(-c3ccccc3)nc12`: the IC50 was > 50 µM (inactive). For `Cc1nc(-c2noc3ccc(C(=O)Nc4cccnc4)cc23)cs1`, the concentration for half-maximal inhibition (IC50) is 14.6 µM. With `CC1(C)CC(n2[nH]c(=O)c3c2NC(=O)CSC3c2ccc(OCc3ccccc3)cc2)CCO1` (stereo unspecified), the IC50 is 12 µM. For the molecule `Cc1cnc2nc3c(cc2c1)CN(CCc1ccc(Cl)cc1)CC3`, the IC50 was > 50 µM (inactive). For the molecule `O=c1c2cnc(N3CCOCC3)nc2ccn1CCc1ccccc1`, the IC50 is 16.7 µM. As to `COc1ccc(C2C(C(=O)Nc3ccccc3OC)=C(C)Nc3nnnn32)cc1Br` (stereo unspecified), the half-maximal inhibitory concentration (IC50) was 27.9 µM. The same measure for `O=c1c(S(=O)(=O)c2cc(F)cc(F)c2)c[nH]c2cc(Cl)ccc12`: 21 µM; for `CS(=O)(=O)N1CCCc2cc(C(=O)Nc3ccc4c(c3)OCO4)ccc21`: > 50 µM (inactive). The same measure for `O=C(COc1ccc(Cl)cc1)N1CCc2cc3ccccc3nc21`: 1.91 µM; for `CCCC1Cc2c(sc3nc(SCC)nc(N)c23)CO1` (stereo unspecified): 13.8 µM.

Regarding `COc1cccc2c1OCC(NS(=O)(=O)c1cc(C)ccc1C)C2` (stereo unspecified), the IC50 is > 50 µM (inactive). The same measure for `COc1cccc(NC(=O)c2ccc3noc(-c4ccc(Cl)cc4)c3c2)c1`: 32.6 µM; for `COc1cccc(CNC(=O)c2ccc(CSc3nc4ccncc4n3Cc3ccccc3F)cc2)c1`: 29.2 µM; for `O=C(CCn1c(=O)c2sccc2n(CC(=O)OCc2ccccc2)c1=O)NCc1ccc2c(c1)OCO2`: 22.9 µM. Take `COC(=O)c1ccc(Cn2cnc3ccc(Br)cc3c2=O)o1`: the IC50 was > 50 µM (inactive).

In the case of `O=C(c1ccc(N2CCc3ccccc32)nn1)N1CCc2ccccc21`, the IC50 was > 50 µM (inactive).

With `O=C(Cn1ccc2ccc(N3CCOCC3)nc21)NCc1ccccc1F`, the IC50 is > 50 µM (inactive).

In the case of `CC1(C)OC2=C(C(=O)c3cc(O)cc(O)c3C2=O)c2cc(CO)c(O)cc21`, the IC50 was > 50 µM (inactive). The figure for `O=C(CNc1nc(Nc2ccccc2F)nc(Nc2ccccc2F)n1)Nc1ccccc1` is 33.4 µM; for `CCc1c(Cl)c(O)c(Cl)c(O)c1C(=O)O[C@H]1C(C)O[C@@H](OC/C2=C\C=C\CC(O)/C(C)=C/C(CC)C(O[C@@H]3OC(C)(C)[C@H](O)C(OC(=O)C(C)C)[C@@H]3O)/C(C)=C/C(C)=C/CC(C(C)O)OC2=O)[C@@H](OC)C1O` (stereo partly specified) it is > 50 µM (inactive); for `COc1ccc(C(=O)Nc2nc(-c3ccc4c(c3)NC(=O)CO4)c(C)s2)cc1OC` it is 1.68 µM. The figure for `CC(=O)NCc1nc(-c2ccc3c(c2)nc(C)c(=O)n3C2CCCC2)no1` is > 50 µM (inactive); for `CC(C)c1cc(NCc2ccccc2)n2nc(-c3cccnc3)nc2n1` it is 19.7 µM; for `Cc1cc(C(=O)CN2CCN(Cc3ccc4c(c3)OCO4)CC2)c(C)n1-c1ccc2c(c1)OCO2` it is > 50 µM (inactive). Regarding `N#Cc1ccc(Cl)cc1NC(=O)COc1cccnc1[N+](=O)[O-]`, the IC50 was > 50 µM (inactive). Take `Cc1cccc(C(=O)Nc2ccccc2Sc2nc3c(c(=O)n(C)c(=O)n3C)n2C)c1`: the IC50 is 32.5 µM. For the molecule `CCOC(=O)N1CCN(S(=O)(=O)c2ccc(C(=O)Nc3ccc(Br)cc3)cc2)CC1`, the IC50 was 1.65 µM. In the case of `FC(F)(F)c1cccc(N2CCN(c3nc4ccccc4n4nnnc34)CC2)c1`, the IC50 was > 50 µM (inactive). The figure for `Cc1cccc(NC(=O)Cn2c(-c3cnccn3)nc(C)c(C)c2=O)c1C` is > 50 µM (inactive). On to `COc1ccc(NC(=O)CSc2nnc(Cc3cccc4ccccc34)n2C)cc1`, for which the IC50 is > 50 µM (inactive). As to `CNc1nc2c(c(=O)n1Cc1ccccc1)CN(C(=O)c1ccc(CN)cc1)CC2`, the 50% inhibitory concentration (IC50) was 42.8 µM. The figure for `O=C(Nc1ccc(F)cc1)Nc1ccccc1OCc1cc(=O)n2ccccc2n1` is 3.88 µM; for `Cc1cc(NC(=O)c2nnn(-c3ccccc3Cl)c2C)no1` it is > 50 µM (inactive); for `Cc1ccc(Cn2nnc(C(=O)NCc3ccco3)c2-n2cccc2)cc1` it is > 50 µM (inactive).

In the case of `COCCNC(=O)c1ccnn1-c1ccc2ccc(-c3cccnc3)cn12`, the IC50 was > 50 µM (inactive).

Turning to `COc1ccc(C(=O)Nc2n[nH]c(C)c2-c2cccc(C)c2)c(OC)c1`, the half-maximal inhibitory concentration (IC50) was 2.31 µM.

For the molecule `Cc1cnc2nc3c(cc2c1)CN(S(=O)(=O)c1cc(F)ccc1C)CC3`, the IC50 was > 50 µM (inactive). The figure for `COc1cc(OC)cc(C(=O)Nc2cnc(-c3ccccc3)nc2)c1` is > 50 µM (inactive).

For the molecule `Cc1ccc(C)c(-c2cc3c(=O)n(Cc4noc(CN5CCCCC5)n4)ccn3n2)c1`, the IC50 is > 50 µM (inactive). The figure for `Fc1cccc(-n2cc(-c3noc(-c4ccccn4)n3)nn2)c1` is 27 µM; for `Cc1cccc(S(=O)(=O)N2CCc3nc4ccccc4n3CC2)c1` it is 23.4 µM. The same measure for `Cc1cccc(NC(=O)Nc2ccc(C)n(CC(=O)Nc3ccccc3)c2=O)c1`: 4.62 µM; for `CCOC(=O)c1ccc(NC(=O)Cn2c(=O)n(CC(=O)NCc3ccco3)c(=O)c3ccccc32)cc1`: 1.01 µM.

Turning to `COc1cccc(Cn2nc3n(CC(C)C)c(=O)c4ccc(C(=O)NCC(C)C)cc4n3c2=O)c1`, the IC50 is 2.37 µM. On to `COc1ccc(NC(=O)Cn2cc(C(=O)c3ccc(F)cc3)c(=O)c3cc(C)ccc32)cc1`, for which the IC50 was 20.7 µM. The figure for `O=C(CSc1nc2ccncc2[nH]1)Nc1ccc(Br)cc1F` is 27.4 µM; for `COc1ccc(NC(=O)CN2C(=O)c3ccccc3Sc3ccc(C(=O)N4CCCC4)cc32)c(OC)c1` it is > 50 µM (inactive); for `CCCCNc1nc2c(-c3ccccc3)nnn2c2ccccc12` it is 1.73 µM. The same measure for `Cc1ccc(NC(=O)c2ccc3c(c2)N(S(C)(=O)=O)CC3)cc1`: 34 µM. The same measure for `Cc1cc2nc(Oc3cccc(Cl)c3)c3ccccc3n2n1`: 2.04 µM; for `Cc1cccc(O)c1-c1nc2c(-c3nc4c(C(=O)O)cccc4o3)cccc2o1`: > 50 µM (inactive).

As usually defined, the IC50 is the concentration at which inhibition is half-maximal.

(Values after PubChem BioAssay AID1645865 (Buhrlage Lab, Dana-Farber Cancer Institute and Novartis …, 2021).)
